Laboratory results as given in article PMC9603946, “On the Sensitivity of the Virion Envelope to Lipid Peroxidation” (Microbiology Spectrum, 2022).
Like-named read-outs stand apart in the source and are kept apart here. Marks after values point to notes of the source that are not given here.

Columns and labels:
[1] = Vero cell viability after 2 h exposure to lipoperoxidators (CellTiter-Glo); settings: African green monkey, CC50, Vero
Protocol: (§1) The cells were washed twice with warm DMEM before a 100 μL lipoperoxidator solution was transferred with a multichannel pipette from the plate containing the drug dilutions in technical triplicates. The cells were incubated with peroxidators for 2 h at 37°C. Then, the medium was removed, and the cells were washed twice with DMEM at 37°C. The plates were cooled down to RT, and the medium was removed. Then, 50 μL phenol red free DMEM and 50 μL CellTiter-glo Luminiscent Cell Viability Assay (Promega, G7571/2/3) were added and mixed in an orbital shaker for 2 min. Afterwards, 80 μL of the mix was transferred onto white 96-well plates and incubated for 10 min at RT for signal stabilization. The luminescence was read in the Glomax Multidetection System (Promega) with an integration time of 0.5 s.
(§2) The means of the technical triplicates were normalized to the means of the vehicle controls, analyzed via nonlinear regression dose responses, and graphed using GraphPad Prism 9.0. Three or four independent biological replicates were performed for each treatment (n = 3 or 4).
(§3) To evaluate the effects of lipid soluble antioxidants, 10 μM vitamin E was loaded onto carrier 1% BSA in the dark for 4.5 h at RT. The cells were washed twice with DMEM at 37°C and preloaded with 100 μL of 10 μM vitamin E in BSA carrier for 3 h at 37°C. The cells were washed twice again before the addition of any lipoperoxidators. Peroxidators were then added to the cells at working concentrations and incubated for 2 h at 37°C. The peroxidation solution was then removed, and the cells were washed twice with DMEM before analyzing viability. To evaluate the effects of a water soluble antioxidant, the cells were treated with 10 μM vitamin C (final concentration) simultaneously with the lipoperoxidators.

Vero cells [2] = test: as above; settings: Vero
Protocol: as §1, §2, §3

[3] = HFF cell viability after 2 h exposure to lipoperoxidators (CellTiter-Glo); settings: human, CC50, HFF
Protocol: as §1, §2, §3

HFF cells [4] = test: as above; settings: HFF
Protocol: as §1, §2, §3

HSV-1 = HSV-1 virion infectivity (plaquing efficiency) on Vero cells after virion pretreatment; settings: Vero; for EC50: Human alphaherpesvirus 1, Vero
Protocol: The inocula were removed, and the cells were washed and then incubated at 37°C in 5% CO2 until plaques were visible and well-resolved (about 2 days), at which time they were fixed and stained with crystal violet.
HSV-1 suspensions of 20,000 plaque PFU in 250 μL DMEM were mixed 1:1 with 2-fold serial dilutions of the general peroxidators and were incubated in a water bath for 2 h at 37°C. Next, treated virions were diluted 1:100 before being adsorbed onto cells for 1 h at 37°C. The inocula were removed, and the cells were washed twice with cold DMEM. Infected cells were overlaid with DMEM supplemented with 2% (Vero) or 1% (HFF) methylcellulose and 5% FBS and were incubated at 37°C until plaques were visible and well-resolved, typically in about 2 days. Cell monolayers were fixed and stained with 1% crystal violet in 17% methanol for 18 h at RT. The cells were washed, and the plaques were counted and normalized to those produced by the vehicle treated virions.
To test the effects of lipid soluble antioxidants on virions, 10 μM vitamin E loaded onto 1% carrier BSA in the dark for 4.5 h at RT was incubated with 10^6 HSV-1 virions for 3 h at 37°C. […] The treated virions were diluted 1:100 before infecting cells. […] The mix was incubated for 2 h at 37°C, diluted 1:100, and used to infect cells. The infectivity of an aliquot of treated virions was tested via a plaque assay.

Vero cells [5] = test: Vero cell lipid peroxidation probed with liperfluo; type: cell-based, African green monkey; settings: Chlorocebus sabaeus, Vero, Liperfluo probe, read-out: CP50 (the source's name)
Protocol: (§4) The effects of peroxidators have been commonly evaluated against purified lipids and liposomes as a proxy, but they have not been evaluated against virions ([50], [53][–][55]). We instead directly evaluated the extent of virion lipid peroxidation.
To evaluate cell lipid peroxidation using liperfluo, 7.5 × 10^3 Vero cells were seeded into each well of 96-well plates and incubated for 18 h at 37°C in 5% CO2. […] Two hours later, the cells were washed twice, and the fluorescence was evaluated in a TECAN Infinite M200 Pro at 515 nm excitation and 545 nm emission.
(§5) To evaluate the effects of a lipid soluble antioxidant, cells or virions were preloaded with vitamin E-BSA for 3 h at 37°C. Vitamin E-BSA containing medium was removed, and the cells were washed twice with DMEM. Liperfluo (20 or 10 μM for cells or virions, respectively) or C11-Bodipy (1 μM for cells or 0.1 mol% for virions) were preloaded into the cells or virions for 30 min at 37°C.
(§6) To evaluate the effects of water soluble antioxidants, liperfluo (20 μM for cells or 10 μM for virions) or C11-Bodipy (1 μM for cells or 0.1 mol% for virions) were preloaded into the cells or virions for 30 min at 37°C. […] Fluorescence was evaluated in a TECAN Infinite M200 Pro at 515 nm excitation and 545 nm emission for liperfluo or at 550 nm excitation and 580 to 630 nm emission for C11-Bodipy.

HSV-1 virions = test: microbe, parasite or virus in culture; parameters: species or system HSV-1 KOS
Protocol: as §4
To evaluate virion peroxidation using liperfluo, 50 μL DMEM that contained 5 × 10^6 PFU of HSV-1 was added to 96-well plates. Virions were then preloaded with 10 μM liperfluo for 20 min at 37°C. […] Fluorescence was evaluated in a TECAN Infinite M200 Pro at 515 nm excitation and 545 nm emission. Medium containing no virus was used as blank.
as §5, §6

Vero cells [6] = test: Viability of Vero cells infected with AMVN-pretreated virions
Protocol: (§7) The inocula were removed, the cells were washed, and the viability was immediately evaluated, mimicking the conditions used to test the direct exposure of the cells to the peroxidators.
(§8) After 1 h at 37°C, the cells were washed, and cell viability was evaluated as described.

HFF cells [7] = test: Viability of HFF cells infected with AMVN-pretreated virions
Protocol: as §7, §8

[8] = preloaded with vitamin E (10 μM, BSA carrier)
[9] = pretreated virions diluted 1:100

Compound: CC(C)CC(C)(C#N)N=NC(C)(C#N)CC(C)C (stereo not shown) [AMVN, 2,2′-azobis(2,4-dimethylvaleronitrile)]
- CC50 at 2 h ([1]; no antioxidant, 2 h at 37°C): 4 mM
- CC50 at 2 h [1, 8]: 4.6 mM
- CC50 at 2 h ([1]; with vitamin C (10 μM)): 3.3 mM
- concentration of maximal inhibition of cell viability (Vero cells [2]): 10000 µM
- PI, CC50 (antioxidant)/CC50 (Vero cells [2]; vitamin C): 0.8
- PI, CC50 (antioxidant)/CC50 (Vero cells [2]; vitamin E): 1.2^d
- CC50 at 2 h ([3]; no antioxidant, 2 h at 37°C): 4.8 mM
- CC50 at 2 h [3, 8]: 4.9 mM
- CC50 at 2 h ([3]; with vitamin C (10 μM)): 4.4 mM
- concentration from which HFF viability was affected (HFF cells [4]): 2000 µM
- PI, CC50 (antioxidant)/CC50 (HFF cells [4]; vitamin C): 0.9
- PI, CC50 (antioxidant)/CC50 (HFF cells [4]; vitamin E): 1.0
- EC50 (HSV-1; 2 h, no antioxidant, virions treated 2 h at 37°C): 0.8 mM
- EC50 (HSV-1; virions preloaded with vitamin E (10 μM, BSA carrier)): 3.8 mM
- EC50 (HSV-1; with vitamin C (10 μM)): 2.6 mM
- concentration of maximal inhibition of virion infectivity (HSV-1): 5 mM
- concentration giving a loss of infectivity of about 30% (HSV-1; 2 h at 37°C): 0.3 mM
- SI, CC50/EC50 (HSV-1; vitamin C): 1.3
- SI, CC50/EC50 (HSV-1; vitamin E): 1.2
- lowest concentration that decreased virion infectivity in the presence of BSA (HSV-1; with BSA): 2.5 mM
- lowest effective concentration on infectivity in the presence of the antioxidants (HSV-1; with antioxidants): 1.5 mM
- EC50 (Vero cells [5]; no antioxidant): 12.6 mM
- EC50 (Vero cells [5]; vitamin C): 11.1 mM
- EC50 (Vero cells [5]; vitamin E): 16.1 mM
- EC50 (HSV-1 virions; Human alphaherpesvirus 1, read-out: VP50, Liperfluo probe, no antioxidant): 1.2 mM
- EC50 (HSV-1 virions; Human alphaherpesvirus 1, read-out: VP50, Liperfluo probe, vitamin C): 1.2 mM
- EC50 (HSV-1 virions; Human alphaherpesvirus 1, read-out: VP50, Liperfluo probe, vitamin E): 0.9 mM
- decrease of infected cell viability at the highest AMVN concentration (Vero cells [6]; AMVN carried by virions): 20 to 30%
- concentration from which AMVN carried by virions had minor effects on infected cell viability (Vero cells [6]; [9]): 2000 µM
- decrease of infected cell viability at the highest AMVN concentration (HFF cells [7]; AMVN carried by virions): 20 to 30%
- concentration from which AMVN carried by virions had minor effects on infected cell viability (HFF cells [7]; [9]): 3000 µM
